In US20220401564A1 (DANA-FARBER CANCER INSTITUTE, INC., priority 2019, published 2022):
Entries after “also recorded” stand apart in the source; their conditions may differ.

Legend:
HDAC8 [1] = molecular target: T1, HDAC8 (Homo sapiens, UniProt Q9BY41); test: HDAC enzymatic assay (Reaction Biology), HDAC8 substrate; assay type: biochemical; set-up: purchased Reaction Biology
T1 sequence (Q9BY41 1-377): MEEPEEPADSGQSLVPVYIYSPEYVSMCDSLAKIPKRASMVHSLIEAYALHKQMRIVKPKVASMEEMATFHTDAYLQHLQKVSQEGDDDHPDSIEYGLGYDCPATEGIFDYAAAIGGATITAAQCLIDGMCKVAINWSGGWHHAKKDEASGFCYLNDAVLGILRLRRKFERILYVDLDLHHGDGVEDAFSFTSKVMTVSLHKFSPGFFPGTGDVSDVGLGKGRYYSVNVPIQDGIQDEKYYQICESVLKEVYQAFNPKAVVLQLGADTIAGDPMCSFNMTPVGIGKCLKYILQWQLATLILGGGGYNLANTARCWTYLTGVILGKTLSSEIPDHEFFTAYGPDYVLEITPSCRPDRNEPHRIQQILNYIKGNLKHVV
Description: Compounds 2 and 9 were tested in an enzymatic assay from Reaction Biology® against HDAC isoforms.
Base Reaction buffer: 50 mM Tris-HCl, pH8.0, 137 mM NaCl, 2.7 mM KCl, and 1 mM MgCl2. Add fresh: 1 mg/ml BSA, 1% DMSO
(HDAC8 only substrate: 50 μM, Arg-His-Lys(Ac)-Lys(Ac))-AMC
1. Delivered 2X enzyme in wells of reaction plate except in the control wells and added buffer to control wells. 2. Delivered compounds in 100% DMSO into the enzyme mixture by Acoustic technology (Echo550; nanoliter range). Spin down and pre-incubation. 3. Delivered 2X Substrate Mixture (Fluorogenic HDAC Substrate and co-factor if applicable) in all reaction wells to initiate the reaction. Spin and shake. 4. Incubated for 30 min for Class 2A, 1 h for HDAC1, 2, 3, and 6, and 2 h for the rest of HDAC isoforms and SIRTs at 30° C. with seal.
5. Added Developer with Trichostatin A (or Nicotinamide for SIRTs) to stop the reaction and to generate fluorescent color. 6. The fluorescence that was generated was detected with excitation (Ex) at […] and emission (Em) at 460 nM by the EnVision Multilabel Plate Reader (PerkinElmer®, Santa Clara, Calif., USA).
IC50 values were derived from a 10-dose response curve. As shown in Tables 1-2, the addition of a linker and CRBN targeting group altered the isoform selectivity of the SAHA-based degrader compounds.

HDAC8 [2] = molecular target: T1, HDAC8; test: Change in cellular protein abundance (TMT proteomics) in Kelly cells; assay type: cell-based; set-up: relative change in relative protein abundance with treatment of Kelly cells; endogenous in cells; host or cells: Kelly cells; settings: FIG. 3A

Row | SMILES | inhibition of HDAC8 deacetylase activity in vitro (in words) (HDAC8 [1]) | IC50 (HDAC8 [1]; 10-dose response curve, read-out: Compound IC50 (M), HDAC8) | HDAC8 protein levels, relative protein abundance compared to DMSO control (HDAC8 [2])
1 | Cc1ncsc1-c1ccc([C@H](C)NC(=O)[C@@H]2C[C@@H](O)CN2C(=O)[C@@H](NC(=O)CCOCCOCCN(CCc2c[nH]c3ccccc23)Cc2ccc(/C=C/C(=O)NO)cc2)C(C)(C)C)cc1 [Compound 2, (2S,4R)-1-((S)-14-(tert-butyl)-3-(4-((E)-3-(hydroxyamino)-3-oxoprop-1-en-1-yl)benzyl)-1-(1H-indol-3-yl)-12-oxo-6,9-dioxa-3,13-diazapentadecan-15-oyl)-4-hydroxy-N—((S)-1-(4-(4-methylthiazol-5-yl)phenyl)ethyl)pyrrolidine-2-carboxamide] | Moderate inhibition | 1.16e-06 M | –
2 | Cc1ncsc1-c1ccc(CNC(=O)[C@@H]2C[C@@H](O)CN2C(=O)[C@@H](NC(=O)C2(F)CC2)C(C)(C)C)c(OCCCCCN(CCc2c[nH]c3ccccc23)Cc2ccc(/C=C/C(=O)NO)cc2)c1 [Compound 7, (2S,4R)—N-(2-((5-((2-(1H-indol-3-yl)ethyl)(4-((E)-3-(hydroxyamino)-3-oxoprop-1-en-1-yl)benzyl)amino)pentyl)oxy)-4-(4-methylthiazol-5-yl)benzyl)-1-((S)-2-(1-fluorocyclopropane-1-carboxamido)-3,3-dimethylbutanoyl)-4-hydroxypyrrolidine-2-carboxamide] | – | – | promote degradation; also recorded: significant and selective reduction
